Source: patent US9549921B2, “Heterocyclic compounds and methods of use thereof for the treatment of hepatitis C” (priority 2014, dated 2017)
pIC50: −log10 of the molar value. Where two headings read alike, the source gives them in different places.

Columns and labels:
HCV replicon genotype 1b = assay: HCV replicon assay, genotype 1b (cell ELISA for NS3/4A); format: cell-based, hepatitis C virus; details: for pIC50: read-out: 1b IC50, HCV genotype 1b replicon cells, 96 hours incubation, NS3/4A ELISA readout, % of DMSO control; for IC50: Hepatitis C virus, 96 h, read-out: 1b IC50 (nM), HCV genotype 1b replicon cells, 96 hours incubation, NS3/4A ELISA readout, % of DMSO control
Procedure: (§1) The HCV NS5B inhibitory activity of the present compounds may be tested using assays known in the art. The HCV NS5B polymerase inhibitors described herein have activities in a genotype 1b replicon assay as described in the Examples. The assay is performed by incubating a replicon harboring cell-line in the presence of inhibitor for a set period of time and measuring the effect of the inhibitor on HCV replicon replication either directly by quantifying replicon RNA level, or indirectly by measuring enzymatic activity of a co-encoded reporter enzyme such as luciferase or β-lactamase. By performing a series of such measurements at different inhibitor concentrations, the effective inhibitory concentration of the inhibitor (EC50 or EC90) is determined. See Jan M. Vrolijk et al., A replicons-based bioassay for the measurement of interferons in patients with chronic hepatitis C, 110 J. VIROLOGICAL METHODS 201 (2003). Such assays may also be run in an automated format for high through-put screening. See Paul Zuck et al., A cell-based β-lactamase reporter gene assay for the identification of inhibitors of hepatitis C virus replication, 334 ANALYTICAL BIOCHEMISTRY 344 (2004).
(§2) Measurement of inhibition by compounds was performed using the HCV replicon system. Several different replicons encoding different HCV genotypes or mutations were used. In addition, potency measurements were made using different formats of the replicon assay, including different ways of measurements and different plating formats. See Jan M. Vrolijk et al., A replicons-based bioassay for the measurement of interferons in patients with chronic hepatitis C, 110 J. VIROLOGICAL METHODS 201 (2003); Steven S. Carroll et al., Inhibition of Hepatitis C Virus RNA Replication by 2′-Modified Nucleoside Analogs, 278(14) J. BIOLOGICAL CHEMISTRY 11979 (2003). However, the underlying principles are common to all of these determinations, and are outlined below.
(§3) Stable neomycin phosphotransferase encoding replicons-harboring cell lines were used, so all cell lines were maintained under G418 selection prior to the assay. Potency was deteremined using a cell ELISA assay with an antibody to the replicons encoded NS3/4a protease. See Caterina Trozzi et al., In Vitro Selection and Characterization of Hepatitis C Virus Serine Protease Variants Resistant to an Active-Site Peptide Inhibitor, 77(6) J. Virol. 3669 (2003). To initiate an assay, replicon cells were plated in the presence of a dilution series of test compound in the absence of G418. Typically, the assays were performed in a 96-well plate formate for manual operation, or a 384-well plate format for automated assay. Replicon cells and compound were incubated for 96 hours. At the end of the assay, cells were washed free of media and compound, and the cells were then lysed. RNA was quantified indirectly through detection of replicon-encoded NS3/4A protein levels, through an ELISA-based assay with an antibody specific for NS3/4A. IC50 determinations were calculated as a percentage of a DMSO control by fitting the data to a four-parameter fit function and the data obtained is provided in the table below.
(§4) Data for selected compounds of the present invention was obtained for genotypes 1a and 1b using this method and is provided in the table below: […]

HCV replicon genotype 1a = assay: HCV replicon assay, genotype 1a (cell ELISA for NS3/4A); format: cell-based, hepatitis C virus; details: for pIC50: read-out: 1a IC50, HCV genotype 1a replicon cells, 96 hours incubation, NS3/4A ELISA readout, % of DMSO control; for IC50: Hepatitis C virus, 96 h, read-out: 1a IC50 (nM), HCV genotype 1a replicon cells, 96 hours incubation, NS3/4A ELISA readout, % of DMSO control
Procedure: as §1, §2, §3, §4

Row | SMILES | pIC50 (HCV replicon genotype 1b) | pIC50 (HCV replicon genotype 1a) | IC50 (HCV replicon genotype 1b) [nM] | IC50 (HCV replicon genotype 1a) [nM]
1 | CNC(=O)c1c(-c2ccc(F)cc2)oc2cc(N(C)S(C)(=O)=O)c([C@@H]3CCN(C(=O)c4cc5c(F)cccc5n4C)C3)cc12 (single isomer, unassigned) [Example 14, 5-(1-(4-fluoro-1-methyl-1H-indole-2-carbonyl)pyrrolidin-3-yl)-2-(4-fluorophenyl)-N-methyl-6-(N-methylmethylsulfonamido)benzofuran-3-carboxamide] | 8.56 | 7.59 |  | 
2 | CNC(=O)c1c(-c2ccc(F)cc2)oc2cc(N(C)S(C)(=O)=O)c([C@H]3CCCN(S(=O)(=O)Cc4cccnc4)C3)cc12 [Example 140, 2-(4-fluorophenyl)-N-methyl-6-[methyl(methylsulfonyl)amino]-5-{(3R)-1-[(pyridin-3-ylmethyl)sulfonyl]piperidin-3-yl}-1-benzofuran-3-carboxamide] |  |  | 16.5 | 20.5
3 | CNC(=O)c1c(-c2ccc(F)cc2)oc2cc(N(C)S(C)(=O)=O)c([C@H]3CCCN(S(=O)(=O)c4cn(CC(C)C)nc4C)C3)cc12 [Example 143, 2-(4-fluorophenyl)-N-methyl-5-[(3R)-1-{[3-methyl-1-(2-methylpropyl)-1H-pyrazol-4-yl]sulfonyl}piperidin-3-yl]-6-[methyl(methylsulfonyl)amino]-1-benzofuran-3-carboxamide] |  |  | 214 | 315
4 | CNC(=O)c1c(-c2ccc(F)cc2)oc2cc(N(C)S(C)(=O)=O)c([C@@H]3CCCN(c4nc5ccccc5o4)C3)cc12 (single isomer, unassigned) [Example 47, 5-(1-(benzo[d]oxazol-2-yl)piperidin-3-yl)-2-(4-fluorophenyl)-N-methyl-6-(N-methylmethylsulfonamido)benzofuran-3-carboxamide] | 8.27 | 8.08 |  | 
5 | CNC(=O)c1c(-c2ccc(F)cc2)oc2cc(N(C)S(C)(=O)=O)c([C@@H]3CCCN(c4nc5ncccc5o4)C3)cc12 (single isomer, unassigned) [Example 53, 2-(4-fluorophenyl)-N-methyl-6-(N-methylmethylsulfonamido)-5-(1-(oxazolo[4,5-b]pyridin-2-yl)piperidin-3-yl)benzofuran-3-carboxamide] |  |  | 15.7 | 14.6
6 | CNC(=O)c1c(-c2ccc(F)cc2)oc2cc(N(C)S(C)(=O)=O)c([C@H]3CCCN(S(=O)(=O)Cc4ccc(F)c(F)c4)C3)cc12 [Example 84, 5-{(3R)-1-[(3,4-difluorobenzyl)sulfonyl]piperidin-3-yl}-2-(4-fluorophenyl)-N-methyl-6-[methyl(methylsulfonyl)amino]-1-benzofuran-3-carboxamide] |  |  | 3.04 | 2.77
7 | CNC(=O)c1c(-c2ccc(F)cc2)oc2cc(N(C)S(C)(=O)=O)c([C@@H]3CCCN(S(=O)(=O)c4cccc5nonc45)C3)cc12 [Example 120, 5-[(3S)-1-(2,1,3-benzoxadiazol-4-ylsulfonyl)piperidin-3-yl]-2-(4-fluorophenyl)-N-methyl-6-[methyl(methylsulfonyl)amino]-1-benzofuran-3-carboxamide] |  |  | 8.37 | 22.4
8 | CNC(=O)c1c(-c2ccc(F)cc2)oc2cc(N(C)S(C)(=O)=O)c([C@@H]3CCCN(C(=O)c4cc5c(F)cccc5n4C)C3)cc12 (single isomer, unassigned) [Example 25, 5-(1-(4-fluoro-1-methyl-1H-indole-2-carbonyl)piperidin-3-yl)-2-(4-fluorophenyl)-N-methyl-6-(N-methylmethylsulfonamido)benzofuran-3-carboxamide] | 8.28 |  |  | 16.4
9 | CNC(=O)c1c(-c2ccc(F)cc2)oc2cc(N(C)S(C)(=O)=O)c([C@@H]3CCCN(C(=O)c4cc(-c5ccc(F)cc5)n[nH]4)C3)cc12 [Example 73, 2-(4-fluorophenyl)-5-(1-{[3-(4-fluorophenyl)-1H-pyrazol-5-yl]carbonyl}piperidin-3-yl)-N-methyl-6-[methyl(methylsulfonyl)amino]-1-benzofuran-3-carboxamide] |  |  | 23.4 | 50.5
10 | CNC(=O)c1c(-c2ccc(F)cc2)oc2cc(N(C)S(C)(=O)=O)c([C@@H]3CCCN(C(=O)c4nc5ccc(F)cc5[nH]4)C3)cc12 [Example 76, 5-{1-[(6-fluoro-1H-benzimidazol-2-yl)carbonyl]piperidin-3-yl}-2-(4-fluorophenyl)-N-methyl-6-[methyl(methylsulfonyl)amino]-1-benzofuran-3-carboxamide] |  |  | 9.96 | 49.4
11 | CNC(=O)c1c(-c2ccc(F)cc2)oc2cc(N(C)S(C)(=O)=O)c([C@H]3CCCN(S(=O)(=O)c4cc5ccccc5o4)C3)cc12 [Example 83, 5-[(3R)-1-(1-benzofuran-2-ylsulfonyl)piperidin-3-yl]-2-(4-fluorophenyl)-N-methyl-6-[methyl(methylsulfonyl)amino]-1-benzofuran-3-carboxamide] |  |  | 22.4 | 38.2
12 | CNC(=O)c1c(-c2ccc(F)cc2)oc2cc(N(C)S(C)(=O)=O)c([C@H]3CCCN(C(=O)c4c(C)c5cc(F)ccc5n4C)C3)cc12 [Example 86, 5-{(3R)-1-[(5-fluoro-1,3-dimethyl-1H-indol-2-yl)carbonyl]piperidin-3-yl}-2-(4-fluorophenyl)-N-methyl-6-[methyl(methylsulfonyl)amino]-1-benzofuran-3-carboxamide] |  |  | 115 | 234
13 | CNC(=O)c1c(-c2ccc(F)cc2)oc2cc(N(C)S(C)(=O)=O)c([C@@H]3CCCN(C(=O)c4coc(-c5ccc(F)cc5)n4)C3)cc12 [Example 72, 2-(4-fluorophenyl)-5-(1-{[2-(4-fluorophenyl)-1,3-oxazol-4-yl]carbonyl}piperidin-3-yl)-N-methyl-6-[methyl(methylsulfonyl)amino]-1-benzofuran-3-carboxamide] |  |  | 23.6 | 125
14 | CNC(=O)c1c(-c2ccc(F)cc2)oc2cc(N(C)S(C)(=O)=O)c([C@H]3CCCN(C(=O)c4n[nH]c(=O)c5ccccc45)C3)cc12 [Example 97, 2-(4-fluorophenyl)-N-methyl-6-[methyl(methylsulfonyl)amino]-5-{(3R)-1-[(4-oxo-3,4-dihydrophthalazin-1-yl)carbonyl]piperidin-3-yl}-1-benzofuran-3-carboxamide] |  |  | 470 | 336
15 | CNC(=O)c1c(-c2ccc(F)cc2)oc2cc(N(C)S(C)(=O)=O)c([C@H]3CCCN(S(=O)(=O)C4CCCC4)C3)cc12 [Example 135, 5-[(3R)-1-(cyclopentylsulfonyl)piperidin-3-yl]-2-(4-fluorophenyl)-N-methyl-6-[methyl(methylsulfonyl)amino]-1-benzofuran-3-carboxamide] |  |  | 45.6 | 80.4
16 | CNC(=O)c1c(-c2ccc(F)cc2)oc2cc(N(C)S(C)(=O)=O)c([C@@H]3CCCN(c4nc5ccccc5n4C)C3)cc12 (single isomer, unassigned) [Example 44, 2-(4-fluorophenyl)-N-methyl-5-(1-(1-methyl-1H-benzo[d]imidazol-2-yl)piperidin-3-yl)-6-(N-methylmethylsulfonamido)benzofuran-3-carboxamide] | 7.08 | 7.15 |  | 
17 | CNC(=O)c1c(-c2ccc(F)cc2)oc2cc(N(C)S(C)(=O)=O)c([C@H]3CCCN(S(=O)(=O)Cc4ccccc4F)C3)cc12 [Example 81, 5-{(3R)-1-[(2-fluorobenzyl)sulfonyl]piperidin-3-yl}-2-(4-fluorophenyl)-N-methyl-6-[methyl(methylsulfonyl)amino]-1-benzofuran-3-carboxamide] |  |  | 11.6 | 14.1
